Assay [1] has as its target T1, human corticosteroid binding globulin (CBG) variant glycosylated at positions 74 and 238 (Homo sapiens, UniProt P08185, N176Q/N31Q/N330Q/N369Q).
T1 construct: in order to isolate a full-length CBG cDNA; made in house; host or cells: CHO cells (CHO pro), measured in culture medium
T1 sequence (P08185 23-405 N31Q/N176Q/N330Q/N369Q): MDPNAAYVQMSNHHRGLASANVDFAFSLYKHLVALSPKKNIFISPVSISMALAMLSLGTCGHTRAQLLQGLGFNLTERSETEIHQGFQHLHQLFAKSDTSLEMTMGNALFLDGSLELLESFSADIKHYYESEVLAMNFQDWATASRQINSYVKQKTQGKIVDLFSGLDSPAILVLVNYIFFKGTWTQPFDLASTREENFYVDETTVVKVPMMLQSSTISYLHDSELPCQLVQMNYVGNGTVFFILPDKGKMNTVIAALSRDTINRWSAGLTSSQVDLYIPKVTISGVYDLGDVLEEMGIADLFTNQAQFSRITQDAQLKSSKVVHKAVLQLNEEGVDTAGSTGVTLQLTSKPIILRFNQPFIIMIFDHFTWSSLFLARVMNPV
As to the kind of experiment: Affinity for cortisol by Scatchard analysis, [3H]-cortisol with increasing unlabelled cortisol. Particulars: concentrated CHO culture media. The procedure: (§1) The steroid binding capacity of the CBG variants in the culture media was measured by saturation analysis using as a labelled ligand [^3 H]-cortisol (55.8 Ci/mmol) obtained from DuPont, and dextran-coated charcoal as a separation agent as described by Hammond et al. in Clin. Chim. Acta, 1983, 132:101.
(§2) Initially, samples of culture media were added to tubes of PBS containing [^3 H]-cortisol. The mixture in the tubes was vortex mixed and incubated at room temperature for 1 h followed by a further incubation in an ice-water for 15 min. Dextran-coated charcoal (DCC) suspension at 0° C. (1.25 g Norit "A"(Amend Drug and Chemical Co.) and 0.125 g Dextran T-70 (AB Pharmacia) in 0.01 mol/l phosphate-buffered saline containing 0.1% gelatin, pH7) was added to the tubes to bind excess labelled cortisol. The tubes were incubated for […] 0° C. After centrifugation at 3000 X g for 5 min at 4° C. to sediment the DCC, the supernatants were decanted into scintillation counting vials containing 4 ml Aqueous Counting Scintillant (Amersham), which were capped, shaken and counted for 10 min or until 10,000 cpm had accumulated. The binding capacity of the CBG variants was calculated in nmol/L after correction for dilution and the dissociation of bound complexes during the DCC treatment (12% for CBG).
(§3) The affinity of the CBG variants for cortisol was measured using the Scatchard analysis.

Assay [2] deals with T2, human corticosteroid binding globulin (CBG) variant glycosylated solely at position 238 (sites 9, 74, 154, 308, 347 disrupted, Asn to Gln) (Homo sapiens, UniProt P08185, N176Q/N31Q/N330Q/N369Q/N96Q).
T2 construct: made in house; host or cells: CHO cells (CHO pro), measured in culture medium
T2 sequence (P08185 23-405 N31Q/N96Q/N176Q/N330Q/N369Q): T1 sequence (P08185 23-405 N31Q/N176Q/N330Q/N369Q) with N74Q
Described as above. To be noted: concentrated CHO culture media, read-out: K8 (affinity for cortisol) (converted). On the procedure: as §1, §2, §3

Assay [3] addresses T3, human corticosteroid binding globulin (CBG) variant Asn238 to Gln (glycosylation site 238 disrupted) (Homo sapiens, UniProt P08185, N260Q).
T3 construct: made in house; host or cells: CHO cells (CHO pro), measured in culture medium
T3 sequence (P08185 23-405 N260Q): T1 sequence (P08185 23-405 N31Q/N176Q/N330Q/N369Q) with Q9N, Q154N, N238Q, Q308N, Q347N
As to the kind of experiment: Steroid binding capacity by saturation analysis with [3H]-cortisol, dextran-coated charcoal. Particulars: CHO culture media. On the procedure:
as §1, §2

Assay [4] deals with T4, human corticosteroid binding globulin (CBG) variant Thr240 to Ala (glycosylation site 238 disrupted) (Homo sapiens, UniProt P08185, T262A).
T4 construct: in order to isolate a full-length CBG cDNA; made in house; host or cells: CHO cells (CHO pro), measured in culture medium
T4 sequence (P08185 23-405 T262A): T1 sequence (P08185 23-405 N31Q/N176Q/N330Q/N369Q) with Q9N, Q154N, T240A, Q308N, Q347N
Described as above. To be noted: CHO culture media. The procedure:
as §1, §2

The target in assay [5] is T5, human corticosteroid binding globulin (CBG) variant glycosylated solely at position 74 (Homo sapiens, UniProt P08185, N176Q/N260Q/N31Q/N330Q/N369Q).
T5 construct: made in house; host or cells: CHO cells (CHO pro), measured in culture medium
T5 sequence (P08185 23-405 N31Q/N176Q/N260Q/N330Q/N369Q): T1 sequence (P08185 23-405 N31Q/N176Q/N330Q/N369Q) with N238Q
As to the kind of experiment: Steroid binding of CBG variant with [3H]-cortisol. To be noted: CHO culture media. The procedure:
Chim. Acta, 1983, 132:101. Initially, samples of culture media were added to tubes of PBS containing [^3 H]-cortisol. The mixture in the tubes was vortex mixed and incubated at room temperature for 1 h followed by a further incubation in an ice-water for 15 min. Dextran-coated charcoal (DCC) suspension at 0° C. […] The tubes were incubated for […] 0° C. […] The binding capacity of the CBG variants was calculated in nmol/L after correction for dilution and the dissociation of bound complexes during the DCC treatment (12% for CBG). The affinity of the CBG variants for cortisol was measured using the Scatchard analysis. Prior to conducting the affinity measurement, the culture media was concentrated using *Centricon microconcentrators (Amicon).

The target of assay [6] is T6, human corticosteroid binding globulin (CBG), native (Homo sapiens, UniProt P08185).
T6 sequence (P08185 23-405): T1 sequence (P08185 23-405 N31Q/N176Q/N330Q/N369Q) with Q9N, Q154N, Q308N, Q347N
To be noted: 4° C., physiological pH; read-out: binding affinity of the natural cortisol ligand for CBG; cited from earlier work.

SMILES strings stand for the structures. Numbering of substitutions follows the chain as printed.

For the compound `C[C@]12CCC(=O)C=C1CC[C@@H]1[C@@H]2[C@@H](O)C[C@@]2(C)[C@H]1CC[C@]2(O)C(=O)CO` [cortisol], in assay [1], the “K4 (steroid-binding affinity)” value amounted to 1.9e+08 M⁻¹. Further, the values for the Kd in assay [2] and in assay [6] were 9.09 nM and approximately 0.7 nM, respectively. Moreover, the steroid-binding activity entry in assay [3] is “complete loss of steroid-binding activity”; in assay [4], “complete loss of steroid-binding activity”; in assay [5], “no steroid-binding activity”.

The values are drawn from patent US5595969A, “Variants of human corticosteroid binding globulin” (Allelix Biopharmaceutical Inc., priority 1995, dated 1997).
